Source: US20210222225A1, “Medium for Disk Diffusion Method to Evaluate Antibiotic Sensitivity” (priority 2018, published 2021)

Legend:
ABA A17_S = test: Colistin disk diffusion, guanidine hydrochloride medium, A17_S; assay type: cell-based, Acinetobacter baumannii; conditions: 30% agar
Experimental: (§1) A concentration of agar particles (BD Diagnostic, Sparks, Md., USA) in Mueller-Hinton broth medium (BD Diagnostic) was adjusted to 5.1 g/L, which is 30% of 17 g/L, and guanidine hydrochloride was added to a concentration of 500 μg/ml, 50 μg/ml, or 5 μg/ml. Then, solidification was performed. On a surface of each medium thus prepared was evenly inoculated each of colistin-susceptible (S) or -resistant (R) Acinetobacter baumannii (ABA) strain, colistin-susceptible (S) or -resistant (R) Klebsiella pnemoniae (KPN) strain, and colistin-susceptible (S) or -resistant (R) Pseudomonas aeruginosa (PAE) strain, and a colistin disk was placed thereon. Then, pictures of a growth inhibition zone, which had been formed clear, around the disk were taken for each strain, and the results are illustrated in FIGS. 8 to 10.

[1] = system: Escherichia coli ATCC25922 strain; test: Colistin disk diffusion on modified Mueller-Hinton agar, ECO; assay type: cell-based; conditions: protamine 100 μg/ml
Experimental: (§2) To each MHA thus modified was added protamine (Sigma-Aldrich, St Louis, Mo., USA) at a concentration of 100 μg/ml, and solidification was performed. Then, on a surface of the medium was evenly inoculated each of colistin-susceptible (S) or -resistant (R) Acinetobacter calcoaceticus-baumannii complex (ACB) strain, Pseudomonas aeruginosa ATCC27853 strain, Escherichia coli ATCC25922 strain, and mcr-1-harboring Enterobacter aerogenes strain, and a colistin disk was placed thereon. Subsequently, a diameter of a growth inhibition zone (colistin inhibition zone), which had been formed clear by diffusion of colistin to the agar around the colistin disk, was measured.

KPN K3007_S = test: Colistin disk diffusion, guanidine hydrochloride medium, K3007_S; assay type: cell-based, Klebsiella pnemoniae; conditions: 30% agar
Experimental: as §1

PAE P1477_S = test: Colistin disk diffusion, guanidine hydrochloride medium, P1477_S; assay type: cell-based, Pseudomonas aeruginosa; conditions: 30% agar
Experimental: as §1

ABA A532_R = test: Colistin disk diffusion, guanidine hydrochloride medium, A532_R; assay type: cell-based, Acinetobacter baumannii; conditions: 30% agar
Experimental: as §1

PAE P1401_S = test: Colistin disk diffusion, guanidine hydrochloride medium, P1401_S; assay type: cell-based, Pseudomonas aeruginosa; conditions: 30% agar
Experimental: as §1

ABA A5_R = test: Colistin disk diffusion, guanidine hydrochloride medium, A5_R; assay type: cell-based, Acinetobacter baumannii; conditions: 30% agar
Experimental: as §1

[2] = system: colistin-resistant (R) Acinetobacter calcoaceticus-baumannii complex (ACB) strain; test: Colistin disk diffusion on modified Mueller-Hinton agar, ACB-R; assay type: cell-based
Experimental: as §2
(§3) As in Example 1, a concentration of agar particles (BD Diagnostic, Sparks, Md., USA) in Mueller-Hinton broth medium (BD Diagnostic) was adjusted to 17 g/L or 5.1 g/L that is 30% of 17 g/L. To select a concentration of protamine, which can enhance diffusion of colistin from a disk without interfering with bacterial growth, while using the protamine at various concentrations, protamine (Sigma-Aldrich, St Louis, Mo., USA) was added to the medium at concentrations of 1 mg/ml, 700 μg/ml, 400 μg/ml, 300 μg/ml, 200 μg/ml, 150 μg/ml, 100 μg/ml, and 50 μg/ml. Each medium thus modified was solidified. Then, on a surface of each medium was evenly inoculated each of colistin-susceptible (S) or -resistant (R) Acinetobacter calcoaceticus-baumannii complex (ACB) strain, Pseudomonas aeruginosa ATCC27853 strain, and mcr-1-harboring Enterobacter aerogenes strain, and a colistin disk was placed thereon. Then, it was determined whether each strain was grown, and a diameter of a growth inhibition zone, which had been formed around the disk, was measured.

[3] = system: Pseudomonas aeruginosa ATCC27853 strain; test: Colistin disk diffusion on modified Mueller-Hinton agar, PAE; assay type: cell-based
Experimental: as §2, §3

[4] = guanidine hydrochloride 5 μg/ml
[5] = guanidine hydrochloride 50 μg/ml
[6] = guanidine hydrochloride 500 μg/ml
[7] = 30% agar, protamine 1,000 μg/ml
[8] = 100% agar, protamine 1,000 μg/ml

colistin
Disk diffusion (mm) (ABA A17_S; [4]): 15 mm
Disk diffusion (mm) (ABA A17_S; [5]): 15 mm
Disk diffusion (mm) (ABA A17_S; [6]): 15 mm
Diameter (mm) of colistin inhibition zone ([1]; 30% agar): 16 mm
Diameter (mm) of colistin inhibition zone ([1]; 40% agar): 14 mm
Diameter (mm) of colistin inhibition zone ([1]; 50% agar): 14 mm
Diameter (mm) of colistin inhibition zone ([1]; 60% agar): 14 mm
Diameter (mm) of colistin inhibition zone ([1]; 70% agar): 14 mm
Diameter (mm) of colistin inhibition zone ([1]; 80% agar): 14 mm
Diameter (mm) of colistin inhibition zone ([1]; 90% agar): 13 mm
Diameter (mm) of colistin inhibition zone ([1]; 100% agar): 13 mm
Disk diffusion (mm) (KPN K3007_S; [4]): 17 mm
Disk diffusion (mm) (KPN K3007_S; [5]): 16 mm
Disk diffusion (mm) (KPN K3007_S; [6]): 16 mm
Disk diffusion (mm) (PAE P1477_S; [4]): 16 mm
Disk diffusion (mm) (PAE P1477_S; [5]): 16 mm
Disk diffusion (mm) (PAE P1477_S; [6]): 14 mm
Disk diffusion (mm) (ABA A532_R; [4]): 9 mm
Disk diffusion (mm) (ABA A532_R; [5]): 9 mm
Disk diffusion (mm) (ABA A532_R; [6]): 9 mm
Disk diffusion (mm) (PAE P1401_S; [4]): 16 mm
Disk diffusion (mm) (PAE P1401_S; [5]): 15 mm
Disk diffusion (mm) (PAE P1401_S; [6]): 16 mm
Disk diffusion (mm) (ABA A5_R; [4]): 10 mm
Disk diffusion (mm) (ABA A5_R; [5]): 10 mm
Disk diffusion (mm) (ABA A5_R; [6]): 10 mm
Disk diffusion (mm) ([2]; 30% agar, protamine 50 μg/ml): 13 mm
Diameter (mm) of colistin inhibition zone ([2]; 30% agar, protamine 100 μg/ml): 11 mm
Disk diffusion (mm) ([2]; 30% agar, protamine 100 μg/ml): 11 mm
Disk diffusion (mm) ([2]; 30% agar, protamine 150 μg/ml): 10 mm
Disk diffusion (mm) ([2]; 30% agar, protamine 200 μg/ml): 8 mm
Disk diffusion (mm) ([2]; 30% agar, protamine 300 μg/ml): 6 mm
Disk diffusion (mm) ([2]; 30% agar, protamine 400 μg/ml): 6 mm
Disk diffusion (mm) ([2]; 30% agar, protamine 700 μg/ml): 6 mm
Disk diffusion (mm) [2, 7]: 6 mm
Diameter (mm) of colistin inhibition zone ([2]; 40% agar, protamine 100 μg/ml): 11 mm
Diameter (mm) of colistin inhibition zone ([2]; 50% agar, protamine 100 μg/ml): 10 mm
Diameter (mm) of colistin inhibition zone ([2]; 60% agar, protamine 100 μg/ml): 13 mm
Diameter (mm) of colistin inhibition zone ([2]; 70% agar, protamine 100 μg/ml): 11 mm
Diameter (mm) of colistin inhibition zone ([2]; 80% agar, protamine 100 μg/ml): 12 mm
Diameter (mm) of colistin inhibition zone ([2]; 90% agar, protamine 100 μg/ml): 12 mm
Disk diffusion (mm) ([2]; 100% agar, protamine 50 μg/ml): 13 mm
Diameter (mm) of colistin inhibition zone ([2]; 100% agar, protamine 100 μg/ml): 11 mm
Disk diffusion (mm) ([2]; 100% agar, protamine 100 μg/ml): 12 mm
Disk diffusion (mm) ([2]; 100% agar, protamine 150 μg/ml): 13 mm
Disk diffusion (mm) ([2]; 100% agar, protamine 200 μg/ml): 12 mm
Disk diffusion (mm) ([2]; 100% agar, protamine 300 μg/ml): 12 mm
Disk diffusion (mm) ([2]; 100% agar, protamine 400 μg/ml): 13 mm
Disk diffusion (mm) ([2]; 100% agar, protamine 700 μg/ml): 6 mm
Disk diffusion (mm) [2, 8]: 6 mm
Disk diffusion (mm) ([3]; 30% agar, protamine 50 μg/ml): 17 mm
Diameter (mm) of colistin inhibition zone ([3]; 30% agar, protamine 100 μg/ml): 16 mm
Disk diffusion (mm) ([3]; 30% agar, protamine 100 μg/ml): 18 mm
Disk diffusion (mm) ([3]; 30% agar, protamine 150 μg/ml): 18 mm
Disk diffusion (mm) ([3]; 30% agar, protamine 200 μg/ml): 20 mm
Disk diffusion (mm) ([3]; 30% agar, protamine 300 μg/ml): 6 mm
Disk diffusion (mm) ([3]; 30% agar, protamine 400 μg/ml): 6 mm
Disk diffusion (mm) ([3]; 30% agar, protamine 700 μg/ml): 6 mm
Disk diffusion (mm) [3, 7]: 6 mm
Diameter (mm) of colistin inhibition zone ([3]; 40% agar, protamine 100 μg/ml): 15 mm
Diameter (mm) of colistin inhibition zone ([3]; 50% agar, protamine 100 μg/ml): 14 mm
Diameter (mm) of colistin inhibition zone ([3]; 60% agar, protamine 100 μg/ml): 15 mm
Diameter (mm) of colistin inhibition zone ([3]; 70% agar, protamine 100 μg/ml): 14 mm
Diameter (mm) of colistin inhibition zone ([3]; 80% agar, protamine 100 μg/ml): 14 mm
Diameter (mm) of colistin inhibition zone ([3]; 90% agar, protamine 100 μg/ml): 13 mm
Disk diffusion (mm) ([3]; 100% agar, protamine 50 μg/ml): 14 mm
Diameter (mm) of colistin inhibition zone ([3]; 100% agar, protamine 100 μg/ml): 13 mm
Disk diffusion (mm) ([3]; 100% agar, protamine 100 μg/ml): 14 mm
Disk diffusion (mm) ([3]; 100% agar, protamine 150 μg/ml): 14 mm
Disk diffusion (mm) ([3]; 100% agar, protamine 200 μg/ml): 13 mm
Disk diffusion (mm) ([3]; 100% agar, protamine 300 μg/ml): 14 mm
Disk diffusion (mm) ([3]; 100% agar, protamine 400 μg/ml): 15 mm
Disk diffusion (mm) ([3]; 100% agar, protamine 700 μg/ml): 17 mm
Disk diffusion (mm) [3, 8]: 18 mm
